We go through 2 molecules from US12031897B2, “Target-locking single-molecule nanoscopy” (Memorial Sloan Kettering Cancer Center, priority 2019, dated 2024).

The subject of one assay is Nanog transcription site. Kind of assay: Nanog transcription bursting (MCP-mNeonGreen, NMG mESCs). In kind it is cell-based, mouse. The source says: It is discovered that Pol II, Sox2 and Brd4 form foci at Nanog transcription sites, with nanoscale organization akin to Pou5f1—colocalization of Pol II with 3′UTR-tagged nascent RNA and resolvable separation of enhancer-associated regulatory factors (FIGS. 9A-9D).
If accumulated Brd4 at Nanog acts mainly as a Pol II pause-release factor, upon Brd4 inhibition a reduction in burst amplitude would be expected. […] Thus, beyond controlling Pol II pause-release, Brd4 regulates transcription bursting, exemplified by the striking correspondence between burst frequency and enhancer-associated Brd4 cluster size. Bursting kinetics cannot be captured by static end-point assays that provide information averaged over a population of cells (e.g. ChIP, NET-Seq etc).
Wide-Field Cell Imaging Experiments. Live cell imaging experiments (tdPCP-EGFP and MCP-mNeonGreen tracking). For time-lapse imaging, a z-stack of 11 frames at 1 frame/second was acquired, by stepping the sample along the z-axis using the nanopositioning stage (250 nm steps). The CCD data were analyzed using IDL 6.4 (ITTVIS). Maximum projection images were calculated for each stack, and the resulting 11 sec/frame movie was used to track the intensities of individual tdPCP-EGFP-tagged transcription sites. A particle tracking routine (Crocker and Grier, 1996) was used for finding the positions of the transcription site in each frame and linking them into a 2D trajectory. The intensity trace of tdPCP-EGFP at the transcription site was corrected for photo-bleaching using the time trace of tdPCP-EGFP in a nearby nuclear region. The auto-correlation function was calculated (for the tdPCP-EGFP fluctuation analysis), or the data were imported in Origin 8.5.0 (OriginLab) and the trace fitted to a single-exponential decay (for the transcription inhibition experiments).
NMG mESCs contain 24×MS2 cassettes integrated in the 3′-UTR of both Nanog alleles and also stably express MCP-mNeonGreen (Ochiai et al., 2014).

For assay [1], the system named is Pol II (FLAG-SNAP-Rpb1) at the CMV mini-gene. In words: ChIP-qPCR of Pol II at the CMV mini-gene after flavopiridol treatment (U2-OS cells). The format is cell-based, human. The settings on record: 10 μM flavopiridol, by the 5-minute time point; clone 5 cells. The method, then: ChIP-qPCR analysis of Pol II after flavopiridol treatment. U2-OS cells. Fast chromatin immuno-precipitation was performed as described. Confluent 15 cm dishes (20×10^6 cells) were treated with 10 μM Flavopiridol or DMSO for the indicated times. Methanol-free formaldehyde (Thermo Fisher) was then directly added to the media to 1% v/v final concentration, and dishes were immediately placed on a rotator/shaker for 10 minutes at RT. Formaldehyde was quenched with 125 mM glycine for 5 min at RT, and cells were scraped and collected with centrifugation (2,000 g, 5 min at 4° C.) and washed twice with cold PBS. Cells were lysed in buffer IP (150 mM NaCl, 50 mM Tris-HCl pH 7.5, 5 mM EDTA, 0.5% v/v NP-40, 1.0% v/v Triton X-100) containing protease inhibitors, centrifuged (12,000 g, 1 min at 4° C.), and after one wash, the pellet was resuspended in buffer IP+protesase inhibitors. Volume equivalent to 4×10^6 cells was sonicated to shear the chromatin (Bioruptor indirect sonicator), and cleared using centrifugation (12,000 g, 10 min at 4° C.). […] Eluted chromatin was analyzed with qPCR, using primer pairs specific for different mini-gene regions (FIGS. 13I, 13J).
In general terms: In qPCR the cycle at which signal appears reflects the starting amount.

The test system of assay [2] is SiR-Rpb1 (Pol II) in the nucleus of U2-OS cells. In words: SiR-Rpb1 FRAP in the nucleus of clone 5 cells. In kind it is cell-based, human. The conditions noted are these: after ~30-40 minutes incubation with 10 μM Flavopiridol. An excerpt: Live cell imaging experiments (SiR-Rpb1 FRAP). For SiR-Rpb1 FRAP experiments, time lapse images were acquired at 1 fps at a focal point adjusted at the mid-plane of the nucleus. To bleach molecules at a spot in the nucleus, an iris was used to block all but a small circle in the center of the excitation beam, the dynamic diffuser was removed and ˜[…] 642 nm laser power was applied for ˜10 seconds. Then, the 642 nm laser power was reduced to ˜7 W/μm2, the diffuser was put back in the optical path (resulting in additional drop in the power reaching the sample), the iris was removed and time-lapse acquisition continued. The recovery trace of SiR-Rpb1 at the bleached spot was corrected for photobleaching using the intensity of nearby (non-photobleached) regions in the nucleus.
Quantification of signal (S) and immobile background (Bi) at the transcription site. […] This behavior reflects gradual photobleaching of Pol II molecules residing within the excitation volume during the measurement and a constant background of molecules rapidly diffusing in and out. […] The Bi/Bd ratio is also consistent with: (i) Fluorescence Recovery After Photobleaching (FRAP) measurements at random nuclear locations (FIGS. 11K, 11L), showing that ˜40% of total Pol II is immobile (recovery time ˜20 min) and likely transcriptionally engaged; (ii) previous GFP-Pol II FRAP results in a related system.

For `Cc1sc2c(c1C)C(c1ccc(Cl)cc1)=N[C@@H](CC(=O)OC(C)(C)C)c1nnc(C)n1-2` [JQ1], the Nanog burst duration entry in the assay on Nanog transcription site (JQ1 titration) was “largely unaffected”. The “Hill equation n, Nanog burst frequency vs. [JQ1]” value in the assay with Nanog transcription site (Nanog, mESCs) amounted to 0.9±0.3. In addition, the Nanog burst amplitude result in the assay with Nanog transcription site (at higher [JQ1]) was “modest reduction”. Besides, in the assay with Nanog transcription site (at low [JQ1]), the Nanog burst frequency entry is listed as “dramatically reduced”.

For the molecule `CN1CC[C@H](c2c(O)cc(O)c3c(=O)cc(-c4ccccc4Cl)oc23)[C@H](O)C1` [flavopiridol], in assay [1], the “Pol II ChIP signal at mini-gene body and terminator regions” value was “near-complete loss”. In assay [2] (~40% in absence of Flavopiridol), the “slow-recovering immobile Pol II population (FRAP)” value was 10-15%. The “fast FRAP recovery of SiR-Rpb1” value in assay [2] (~60% in absence) is 85-90%.
